Results reported in patent US11866460B2 (priority 2015, dated 2024).
“And” between values parts separate entries of the source, which are not always exact repeats. Identical values can stand only once. Like-named read-outs stand apart in the source and are kept apart here. Where a SMILES comes first, the peptide text is derived from it. Where no end group is shown, it is not given here.

Tests used:
CHIKV 181/25 [1] = experiment: microbe, parasite or virus in culture; settings: Chikungunya virus, Vero
in vitro = settings: African green monkey
DENV-2 New Guinea C [2] = test system: DENV-2 New Guinea C
CHIKV 181/25 [3] = test system: CHIKV 181/25
DENV-3 H87 [4] = test system: DENV-3 H87
DENV-4 H241 [5] = test system: DENV-4 H241
DENV-1 PRS41393 [6] = test system: DENV-1 PRS41393
YFV 17D [7] = test system: YFV 17D
YFV 17D [8] = experiment: microbe, parasite or virus in culture; settings: Yellow fever virus, Vero
DENV-3 H87 [9] = experiment: microbe, parasite or virus in culture; settings: Dengue virus, DENV3, Vero, 0 h
RVFV MP12 = experiment: microbe, parasite or virus in culture; settings: Rift Valley fever virus, Vero, 0 h
LACV H44-71017 = experiment: organism not typed; assay type: cell-based, LaCrosse encephalitis virus; settings: Vero
DENV-2 New Guinea C [10] = experiment: microbe, parasite or virus in culture; settings: Dengue virus, DENV2, Vero
Vero cells = settings: African green monkey
DENV-4 H241 [11] = experiment: microbe, parasite or virus in culture; settings: Dengue virus, DENV4, Vero
JUNV Candid #1 = experiment: microbe, parasite or virus in culture; settings: Mammarenavirus juninense, Vero
DENV-1 PRS41393 [12] = experiment: microbe, parasite or virus in culture; settings: Dengue virus, DENV1, Vero
[13] = test system: panel of enveloped viruses (DENV, JEV, YFV, CHIKV and others)
[14] = test system: influenza A/Hong Kong/1/1968 virus (H3N2); experiment: microbe, parasite or virus in culture; settings: H3N2, MDCK
[15] = read-out: EC50 Values for the Indicated Virus

Compound: O=c1cnn([C@@H]2O[C@H](CO)[C@@H](O)[C@H]2O)c(=O)[nH]1 [6-azauridine]
- EC50 (CHIKV 181/25 [1]): 0.29 µM

Compound: CC[C@H](C)[C@H](NC(=O)[C@H](Cc1c[nH]c2ccccc12)NC(=O)[C@H](CC(=O)O)NC(=O)[C@H](Cc1c[nH]c2ccccc12)NC(=O)[C@@H](NC(=O)[C@H](CC(=O)O)NC(=O)[C@H](CCCNC(=N)N)NC(=O)[C@H](CC(C)C)NC(=O)[C@H](Cc1c[nH]c2ccccc12)NC(=O)[C@H](CO)NC(=O)CNC(=O)[C@@H](N)CO)C(C)C)C(=O)N[C@@H](CS)C(=O)N[C@H](C(=O)N[C@H](C(=O)N[C@@H](CC(C)C)C(=O)N[C@H](C(=O)N[C@@H](CC(=O)O)C(=O)N[C@@H](Cc1ccccc1)C(=O)N[C@@H](CCCCN)C(=O)N[C@H](C(=O)N[C@@H](Cc1c[nH]c2ccccc12)C(=O)N[C@@H](CC(C)C)C(=O)N[C@@H](CCC(N)=O)C(=O)N[C@@H](CO)C(=O)N[C@@H](CCCCN)C(=O)N[C@@H](CC(C)C)C(=O)O)[C@@H](C)O)[C@@H](C)O)C(C)C)[C@@H](C)O [AH, reference compound]
- MHC (human erythrocyte cells): 50 µM
- EC50 (in vitro): 127 µM
- CC50 (in vitro): 192 µM
- Therapeutic Index (CC50/EC50) (DENV-2 New Guinea C [2]; -2 New Guinea C): 708.11
- Therapeutic Index (CC50/EC50) (CHIKV 181/25 [3]): 21.21
- Therapeutic Index (CC50/EC50) (DENV-3 H87 [4]; -3 H87): 17.65
- Therapeutic Index (CC50/EC50) (JEV 14-14-2): 236.04
- Therapeutic Index (CC50/EC50) (DENV-4 H241 [5]; -4 H241): 36.84
- Therapeutic Index (CC50/EC50) (DENV-1 PRS41393 [6]; -1 PRS41393): 49.98
- Therapeutic Index (CC50/EC50) (YFV 17D [7]): 5.87

Compound: Nc1ccn(C[C@@H](CO)OCP(=O)(O)O)c(=O)n1 [Cidofovir]
- CC50 (in vitro): > 375 µM

Compound: NC(=O)c1ncn([C@@H]2O[C@H](CO)[C@@H](O)[C@H]2O)n1 [Ribavirin]
- EC50 (YFV 17D [8]): 203 µM
- EC50 (YFV 17D [8]; 0 h): 258 µM
- EC50 (DENV-3 H87 [9]): 176 µM
- CC50 (in vitro): > 750 µM
- EC50 (RVFV MP12): 140 µM
- EC50 (LACV H44-71017): 161 µM
- EC50 (LACV H44-71017; 0 h): 143 µM
- EC50 (DENV-2 New Guinea C [10]): 267 µM
- EC50 (DENV-2 New Guinea C [10]; 0 h): 360 µM
- EC50 (DENV-2 New Guinea C [2]): 203 µM and 185 µM
- CC50 (Vero cells): 577 µM
- EC50 (DENV-4 H241 [5]): 209 µM and 284 µM
- EC50 (DENV-4 H241 [11]): 253 µM
- EC50 (DENV-4 H241 [11]; 0 h): 395 µM
- EC50 (JUNV Candid #1): 73.2 µM
- EC50 (JUNV Candid #1; 0 h): 63.7 µM
- EC50 (YFV 17D [7]): 212 µM and 170 µM
- EC50 (DENV-1 PRS41393 [12]): 144 µM
- EC50 (DENV-1 PRS41393 [12]; 0 h): 206 µM

Compound: CC(C)C[C@H](NC(=O)[C@H](CCCCN)NC(=O)[C@H](CO)NC(=O)[C@H](CCC(N)=O)NC(=O)[C@H](CC(C)C)NC(=O)[C@H](Cc1c[nH]c2ccccc12)NC(=O)[C@@H](NC(=O)[C@H](Cc1c[nH]c2ccccc12)NC(=O)[C@@H](NC(=O)[C@H](CC(=O)O)NC(=O)[C@H](CCCNC(=N)N)NC(=O)[C@H](CC(C)C)NC(=O)[C@H](Cc1c[nH]c2ccccc12)NC(=O)[C@H](CO)NC(=O)CNC(=O)[C@H](CO)NC(=O)CCOCCOCCOCCOCCOCCOCCOCCOCCOCCOCCOCCOCCNC(=O)CCOCCOCCOCCOCCOCCOCCOCCOCCOCCOCCOCCOCCN)C(C)C)[C@@H](C)O)C(N)=O [TSGX1X] (HELM PEPTIDE1{[NCCOCCOCCOCCOCCOCCOCCOCCOCCOCCOCCOCCOCCC(=O)[*:2]].[O=C(CCOCCOCCOCCOCCOCCOCCOCCOCCOCCOCCOCCOCCN[*:1])[*:2]].S.G.S.W.L.R.D.V.W.T.W.L.Q.S.K.L.[am]}$$$$V2.0)
- EC50 (DENV-2 New Guinea C [2]): 3.86 µM
- EC50 (CHIKV 181/25 [3]; 0 h): 27.2 µM
- EC50 (DENV-3 H87 [4]): 2.28 µM
- EC50 (JEV 14-14-2; 0 h): 1.27 µM
- EC50 (DENV-4 H241 [5]): 3.54 µM
- EC50 (Ebola virus (EBOV)): 13.5 µM
- EC50 (Ebola virus (EBOV); [15]): 13.5 µM
- antiviral activities of pegylated peptides [13]: reduced
- antiviral activity of pegylated peptides [13]: preserve strong antiviral activity
- efficacy against infection [13]: effective
- EC50 (DENV-1 PRS41393 [6]): 4.98 µM
- EC50 (Marburg virus (MARV)): 14.3 µM
- EC50 (Marburg virus (MARV); [15]): 14.3 µM
- EC50 (YFV 17D [7]): 22.4 µM

Compound: CC(C)C[C@H](NC(=O)[C@H](CCCCN)NC(=O)[C@H](CO)NC(=O)[C@H](CCC(N)=O)NC(=O)[C@H](CC(C)C)NC(=O)[C@H](Cc1c[nH]c2ccccc12)NC(=O)[C@@H](NC(=O)[C@H](Cc1c[nH]c2ccccc12)NC(=O)[C@@H](NC(=O)[C@H](CC(=O)O)NC(=O)[C@H](CCCNC(=N)N)NC(=O)[C@H](CC(C)C)NC(=O)[C@H](Cc1c[nH]c2ccccc12)NC(=O)[C@H](CO)NC(=O)[C@H](CO)NC(=O)CNC(=O)CCOCCOCCOCCOCCOCCOCCOCCOCCOCCOCCOCCOCCNC(=O)CCOCCOCCOCCOCCOCCOCCOCCOCCOCCOCCOCCOCCN)C(C)C)[C@@H](C)O)C(N)=O [TSGX2X] (HELM PEPTIDE1{[NCCOCCOCCOCCOCCOCCOCCOCCOCCOCCOCCOCCOCCC(=O)[*:2]].[O=C(CCOCCOCCOCCOCCOCCOCCOCCOCCOCCOCCOCCOCCN[*:1])[*:2]].G.S.S.W.L.R.D.V.W.T.W.L.Q.S.K.L.[am]}$$$$V2.0)
- EC50 (Ebola virus (EBOV)): 29.9 µM
- EC50 (Ebola virus (EBOV); [15]): 29.9 µM
- antiviral activities of pegylated peptides [13]: reduced
- antiviral activity of pegylated peptides [13]: preserve strong antiviral activity
- efficacy against infection [13]: effective
- EC50 (Marburg virus (MARV)): 44.3 µM
- EC50 (Marburg virus (MARV); [15]): 44.3 µM

Compound: CC(=O)N[C@H]1[C@H]([C@H](O)[C@H](O)CO)OC(C(=O)O)=C[C@@H]1N=C(N)N [Zanamivir]
- EC50 [14]: 4.52 µM

Compound: AGSWLRDILTLLQSAL [TSG009]
- MHC (human erythrocyte cells): 1.5 µM
- MIC in PB (S. aureus (ATCC 25923); 10 mM potassium phosphate buffer, pH 7.2): 1.5 µM
- MIC in PBS (S. aureus (ATCC 25923); phosphate-buffered saline): 1.5 µM
